Source: PubChem BioAssay AID212 (DTP/NCI, 2004)
“And” between values parts separate entries of the source, which are not always exact repeats. Equal values may be shown once. Inconclusive results are not listed.

Tested on: BDF1 mice, colon carcinoma 38 sc, T/C %
Assay: NCI In Vivo Anticancer Drug Screen. Data for tumor model Colon Carcinoma 38 (subcutaneous) in B6D2F1 (BDF1) mice
Conditions: endpoint: median tumor weight (est.), higher = larger tumour
Summary of the method: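 Ratio of survival or tumor size, compound-treated animals relative to vehicle controls, in tumor-bearing mice.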

[1] = dose: 25.0 mg/kg/injection, schedule: Q07DX002 (ip), vehicle: saline with Tween-80
[2] = dose: 50.0 mg/kg/injection, schedule: Q07DX002 (ip), vehicle: saline with Tween-80
[3] = dose: 100.0 mg/kg/injection, schedule: Q07DX002 (ip), vehicle: saline with Tween-80
[4] = dose: 200.0 mg/kg/injection, schedule: Q07DX002 (ip), vehicle: saline with Tween-80
[5] = dose: 400.0 mg/kg/injection, schedule: Q07DX002 (ip), vehicle: saline with Tween-80
[6] = dose: 6.25 mg/kg/injection, schedule: Q07DX002 (ip), vehicle: saline
[7] = dose: 25.0 mg/kg/injection, schedule: Q07DX002 (ip), vehicle: saline
[8] = dose: 50.0 mg/kg/injection, schedule: Q07DX002 (ip), vehicle: Klucel (hydroxypropylcellulose) (HPC)
[9] = dose: 200.0 mg/kg/injection, schedule: Q07DX002 (ip), vehicle: Klucel (hydroxypropylcellulose) (HPC)
[10] = dose: 400.0 mg/kg/injection, schedule: Q07DX002 (ip), vehicle: Klucel (hydroxypropylcellulose) (HPC)

## Cc1cc(O)c(N=Nc2ccc(C(=O)O)cc2)cc1C
[1]
  T/C: 108 % of control
[2]
  T/C: 104 % of control
[3]
  T/C: 100 % of control
[4]
  T/C: 55 % of control
[5]
  T/C: 84 % of control

## N#CC(C#N)=C/C=C/c1cccc([N+](=O)[O-])c1
dose: 6.25 mg/kg/injection, schedule: Q07DX003 (ip), vehicle: Klucel (hydroxypropylcellulose) (HPC)
  T/C: 79 % of control
dose: 12.5 mg/kg/injection, schedule: Q07DX003 (ip), vehicle: Klucel (hydroxypropylcellulose) (HPC)
  T/C: 77 % of control
dose: 25.0 mg/kg/injection, schedule: Q07DX003 (ip), vehicle: Klucel (hydroxypropylcellulose) (HPC)
  T/C: 76 % of control
dose: 50.0 mg/kg/injection, schedule: Q07DX003 (ip), vehicle: Klucel (hydroxypropylcellulose) (HPC)
  T/C: 60 % of control

## CCOC(=O)N1CCc2nc3ccc(Cl)cc3cc21
[1]
  T/C: 68 % of control
[2]
  T/C: 68 % of control
[3]
  T/C: 166 % of control
[4]
  T/C: 79 % of control
[5]
  T/C: 111 % of control

## O=[N+]([O-])c1ccc(Sc2ccncn2)c([N+](=O)[O-])c1
dose: 12.5 mg/kg/injection, schedule: Q07DX002 (ip), vehicle: saline with Tween-80
  T/C: 51 % of control
[1]
  T/C: 64 % of control and 74 % of control
[3]
  T/C: 43 % of control and 44 % of control

## CN(C)N=Nc1cccc(C(N)=O)c1
dose: 10.0 mg/kg/injection, schedule: Q07DX002 (ip), vehicle: Klucel (hydroxypropylcellulose) (HPC)
  T/C: 86 % of control
dose: 20.0 mg/kg/injection, schedule: Q07DX002 (ip), vehicle: Klucel (hydroxypropylcellulose) (HPC)
  T/C: 86 % of control
dose: 20.0 mg/kg/injection, schedule: Q07DX002 (ip), vehicle: saline
  T/C: 97 % of control
dose: 40.0 mg/kg/injection, schedule: Q07DX002 (ip), vehicle: Klucel (hydroxypropylcellulose) (HPC)
  T/C: 44 % of control
dose: 40.0 mg/kg/injection, schedule: Q07DX002 (ip), vehicle: saline
  T/C: 114 % of control and 104 % of control
dose: 80.0 mg/kg/injection, schedule: Q07DX002 (ip), vehicle: Klucel (hydroxypropylcellulose) (HPC)
  T/C: 18 % of control
dose: 160.0 mg/kg/injection, schedule: Q07DX002 (ip), vehicle: saline
  T/C: 27 % of control and 29 % of control

## O=C1C=C2C(=CCOC2O)O1 (stereo unspecified)
dose: 0.75 mg/kg/injection, schedule: Q07DX002 (ip), vehicle: saline
  T/C: 91 % of control
dose: 1.0 mg/kg/injection, schedule: Q07DX002 (ip), vehicle: water
  T/C: 98 % of control
dose: 1.5 mg/kg/injection, schedule: Q07DX002 (ip), vehicle: saline
  T/C: 72 % of control
dose: 2.0 mg/kg/injection, schedule: Q07DX002 (ip), vehicle: water
  T/C: 90 % of control
dose: 4.0 mg/kg/injection, schedule: Q07DX002 (ip), vehicle: water
  T/C: 117 % of control

## CCCC[C@H]1C(=O)O[C@H](C)[C@H](NC(=O)c2cccc(NC=O)c2O)C(=O)O[C@@H](C)[C@@H]1OC(=O)CC(C)C
dose: 0.5 mg/kg/injection, schedule: Q07DX002 (ip), vehicle: Klucel (hydroxypropylcellulose) (HPC)
  T/C: 177 % of control
dose: 1.0 mg/kg/injection, schedule: Q07DX002 (ip), vehicle: Klucel (hydroxypropylcellulose) (HPC)
  T/C: 224 % of control

## Cc1[nH]c(=O)[nH]c(=O)c1N(CCF)CCCl
dose: 16.0 mg/kg/injection, schedule: Q07DX002 (ip), vehicle: Klucel (hydroxypropylcellulose) (HPC)
  T/C: 69 % of control and 71 % of control
dose: 32.0 mg/kg/injection, schedule: Q07DX002 (ip), vehicle: Klucel (hydroxypropylcellulose) (HPC)
  T/C: 67 % of control and 79 % of control and 82 % of control
dose: 64.0 mg/kg/injection, schedule: Q07DX002 (ip), vehicle: Klucel (hydroxypropylcellulose) (HPC)
  T/C: 38 % of control
dose: 64.0 mg/kg/injection, schedule: Q07DX003 (ip), vehicle: Klucel (hydroxypropylcellulose) (HPC)
  T/C: 21 % of control and 28 % of control

## C[CH2][Sn]([CH2]C)([O]S(C)(=O)=O)[O]S(C)(=O)=O
dose: 1.56 mg/kg/injection, schedule: Q07DX002 (ip), vehicle: saline
  T/C: 18 % of control
dose: 3.13 mg/kg/injection, schedule: Q07DX002 (ip), vehicle: saline
  T/C: 78 % of control
[6]
  T/C: 108 % of control and 117 % of control and 96 % of control
[7]
  T/C: 26 % of control

## Brc1c(NC2=NCCN2)ccc2nccnc12
dose: 3.12 mg/kg/injection, schedule: Q07DX002 (ip), vehicle: saline
  T/C: 87 % of control
[6]
  T/C: 98 % of control
dose: 12.5 mg/kg/injection, schedule: Q07DX002 (ip), vehicle: saline
  T/C: 92 % of control
[7]
  T/C: 82 % of control
dose: 50.0 mg/kg/injection, schedule: Q07DX002 (ip), vehicle: saline
  T/C: 72 % of control
dose: 100.0 mg/kg/injection, schedule: Q07DX002 (ip), vehicle: saline
  T/C: 75 % of control

## CS(=O)(=O)OCCN(CCOS(C)(=O)=O)c1ccc(C=Nc2ccc(-c3csc(COc4ccccc4)n3)cc2)cc1
[8]
  T/C: 158 % of control
[9]
  T/C: 97 % of control and 100 % of control
[10]
  T/C: 46 % of control

## CC1OC(=O)C(C(C)C)NC(=O)C(C(C)C)OC(=O)C(C(C)C)NC(=O)C(C)OC(=O)C(C(C)C)NC(=O)C(C(C)C)OC(=O)C(C(C)C)NC(=O)C(C)OC(=O)C(C(C)C)NC(=O)C(C(C)C)OC(=O)C(C(C)C)NC1=O (stereo unspecified)
dose: 2.5 mg/kg/injection, schedule: Q07DX003 (ip), vehicle: saline with Tween-80
  T/C: 71 % of control and 90 % of control
dose: 5.0 mg/kg/injection, schedule: Q07DX003 (ip), vehicle: saline with Tween-80
  T/C: 79 % of control
dose: 40.0 mg/kg/injection, schedule: Q07DX003 (ip), vehicle: saline with Tween-80
  T/C: 37 % of control

## CSc1nc(=O)[nH]nc1SCc1ccccc1
dose: 25.0 mg/kg/injection, schedule: Q07DX002 (ip), vehicle: Klucel (hydroxypropylcellulose) (HPC)
  T/C: 151 % of control and 169 % of control
[10]
  T/C: 65 % of control

## CN(C)c1nc(N(C)C)nc(N(C)C)n1
dose: 12.5 mg/kg/injection, schedule: Q07DX003 (ip), vehicle: saline with Tween-80
  T/C: 68 % of control
dose: 25.0 mg/kg/injection, schedule: Q07DX003 (ip), vehicle: saline with Tween-80
  T/C: 91 % of control
dose: 50.0 mg/kg/injection, schedule: Q07DX003 (ip), vehicle: saline with Tween-80
  T/C: 112 % of control
dose: 100.0 mg/kg/injection, schedule: Q07DX003 (ip), vehicle: saline with Tween-80
  T/C: 66 % of control
dose: 200.0 mg/kg/injection, schedule: Q07DX003 (ip), vehicle: saline with Tween-80
  T/C: 65 % of control

## CCC12C[N+]3([O-])CCc4c([nH]c5ccccc45)C(C(=O)OC)(c4cc5c(cc4OC)N(C)C4C(O)(C(=O)OC)C(OC(C)=O)C6(CC)C=CCN7CCC54C76)CC(C3)C1O2 (stereo unspecified)
dose: 1.25 mg/kg/injection, schedule: Q07DX002 (ip), vehicle: water
  T/C: 113 % of control
dose: 2.5 mg/kg/injection, schedule: Q07DX002 (ip), vehicle: water
  T/C: 90 % of control
dose: 5.0 mg/kg/injection, schedule: Q07DX002 (ip), vehicle: water
  T/C: 84 % of control
dose: 10.0 mg/kg/injection, schedule: Q07DX002 (ip), vehicle: water
  T/C: 108 % of control
dose: 20.0 mg/kg/injection, schedule: Q07DX002 (ip), vehicle: water
  T/C: 82 % of control
dose: 40.0 mg/kg/injection, schedule: Q07DX002 (ip), vehicle: water
  T/C: 94 % of control

## OC1CCCC2CCC[N-]C12.OC1CCCC2CCC[N-]C12.[Mn+2] (stereo unspecified)
dose: 12.5 mg/kg/injection, schedule: Q07DX002 (ip), vehicle: Klucel (hydroxypropylcellulose) (HPC)
  T/C: 76 % of control
[8]
  T/C: 91 % of control
dose: 100.0 mg/kg/injection, schedule: Q07DX002 (ip), vehicle: Klucel (hydroxypropylcellulose) (HPC)
  T/C: 63 % of control and 84 % of control
[9]
  T/C: 86 % of control and 98 % of control
[10]
  T/C: 69 % of control

## CC1=C(/C=C/C(C)=C/C=C/C(C)=C/C=O)C(C)(C)CCC1
[3]
  T/C: 116 % of control

## COCC(O)Cn1ccnc1[N+](=O)[O-] (stereo unspecified)
dose: 12.5 mg/kg/injection, schedule: Q07DX003 (ip), vehicle: water
  T/C: 85 % of control
dose: 25.0 mg/kg/injection, schedule: Q07DX003 (ip), vehicle: water
  T/C: 90 % of control
dose: 50.0 mg/kg/injection, schedule: Q07DX003 (ip), vehicle: water
  T/C: 100 % of control
dose: 100.0 mg/kg/injection, schedule: Q07DX003 (ip), vehicle: water
  T/C: 118 % of control
dose: 200.0 mg/kg/injection, schedule: Q07DX003 (ip), vehicle: water
  T/C: 72 % of control
dose: 400.0 mg/kg/injection, schedule: Q07DX003 (ip), vehicle: water
  T/C: 86 % of control
